Data published in patent publication US20260102346A1, “LIPID COMPOSITION” (priority 2022, published 2026).

What was measured:
[1] = tested on: luciferase mRNA expression in livers and injection sites (muscles); experiment: In vivo luciferase expression liver/muscle of LNP and LPP with different cationic lipids (Example 10); design: species or system Balb/c mice; conditions: 10 μg luciferase mRNA i.m., 6 hours after injection; for Liver/muscle (%, LNP): LNP preparation of the cationic lipid; for Liver/muscle (%, LPP): LPP preparation of the cationic lipid
Text: Test of in vivo luciferase signal expression: female Balb/c mice (Beijing Vital River Laboratory Animal Technology Co., Ltd.) of 6-8 weeks of age were divided into 18 groups (M5-LNP, M5-LPP, SM102-LNP, SM102-LPP, ALC0315-LNP, ALC0315LPP, SW-II-121-LNP, SW-II-121-LPP, SW-II-122-LNP, SW-II-122-LPP, SW-II-134-3-LNP, SW-II-134-3-LPP, SW-II-138-2-LNP, SW-II-138-2-LPP, SW-II-139-2-LNP, SW-II-139-2-LPP, SW-II-140-2-LNP, and SW-II-140-2-LPP groups, with 3 mice per group). M5-LNP, M5-LPP, SM102-LNP, SM102-LPP, ALC0315-LNP, ALC0315LPP, SW-II-121-LNP, SW-II-121-LPP, SW-II-122-LNP, SW-II-122-LPP, SW-II-134-3-LNP, SW-II-134-3-LPP, SW-II-138-2-LNP, SW-II-138-2-LPP, SW-II-139-2-LNP, SW-II-139-2-LPP, SW-II-140-2-LNP, and SW-II-140-2-LPP solutions containing 10 μg of luciferase mRNA were administered by intramuscular injection (hind limbs of mice), respectively. 6 Hours after the administration, mice were injected intraperitoneally with 30 mg of a […] substrate. The bioluminescence was measured in a Xenogen IVIS-200 imaging system 15 minutes after substrate injection to evaluate the expression of the luciferase mRNA in the livers and injection sites (muscles) of the mice.

[2] = tested on: luciferase mRNA expression in livers and injection sites (muscles); experiment: In vivo luciferase expression of LNP with M5, MC3, SW-II-121 (Example 11.1); design: species or system Balb/c mice; conditions: LNP preparation, DSPC, PEG-DMG, 50:10:38.5:1.5, 10 μg luciferase mRNA, 6 hours after intramuscular administration
Method: Test of in vivo luciferase signal expression: female Balb/c mice (Beijing Vital River Laboratory Animal Technology Co., Ltd.) of 6-8 weeks of age were divided into 3 groups (M5-LNP, MC3-LNP, and SW-II-121-LNP, with 3 mice per group). M5-LNP, MC3-LNP, and SW-II-121-LNP solutions containing 10 μg of luciferase mRNA were administered by intramuscular injection (hind limbs of mice), respectively. 6 Hours after the administration, mice were injected intraperitoneally with 30 mg of a […] substrate. The bioluminescence was measured in a Xenogen IVIS-200 imaging system 15 minutes after substrate injection to evaluate the expression of the luciferase mRNA in the livers and injection sites (muscles) of the mice.

Compound | Liver/muscle (%, LNP) [1] [%] | Liver/muscle (%, LPP) [1] [%] | in vivo expression (luciferase, injection site and liver) [2]
CCCCCCCCC(CCCCCC)C(=O)OCCCCCCN(CCCCO)CCCCCCOC(=O)C(CCCCCC)CCCCCCCC (stereo not shown) [ALC-0315, reference compound] | 199.8 ± 35.8 | 173.2 ± 103.9 | –
CCCCCCCCCOC(=O)CCCCCCCN(CCO)CCCCCCCC(=O)OC(CCCCCCCC)CCCCCCCC [Compound M5] | 10.1 ± 7.5 | 2.8 ± 0.3 | –
CCCCCCCCCCCOC(=O)CCCCCN(CCO)CCCCCCCC(=O)OC(CCCCCCCC)CCCCCCCC [SM-102, reference compound] | 6.2 ± 3.3 | 2.7 ± 0.6 | –
CCCCCCCCC(CCCCCCCC)OC(=O)CCCCCCCN(CCO)CCCCCCCC(=O)OCCc1ccc(CCCCCCC)cc1 [SW-II-121] | 77.8 ± 48.9 | 52.2 ± 38.9 | significantly superior in vivo expression 6 hours after intramuscular administration to M5-LNP and MC3-LNP
CCCCCCCCC(CCCCCCCC)OC(=O)CCCCCCCN(CCO)CCCCCCCC(=O)OCc1cccc(CCCCCC)c1 [SW-II-122] | 11.9 ± 1.2 | 2.8 ± 0.8 | –
CCCCCCCCCOC(=O)CCCCCCCN(CCO)CCCCCCCC(=O)OCCc1ccc(CCCC)c(CCCC)c1 [SW-II-134-3] | 8.2 ± 2.9 | 1.5 ± 0.8 | –
CCCCCCCCC(CCCCCCCC)OC(=O)CCCCCCCN(CCO)CCCCCCCC(=O)OCCCCc1ccc(CCCCC)cc1 [SW-II-138-2] | 8.2 ± 5.7 | 3.5 ± 0.2 | –
CCCCCCCCC(CCCCCCCC)OC(=O)CCCCCCCN(CCO)CCCCCCCC(=O)OCCc1cccc(CCCC)c1 [SW-II-139-2] | 75.1 ± 16.1 | 2.0 ± 1.0 | –
CCCCCCCCC(CCCCCCCC)OC(=O)CCCCCCCN(CCO)CCCCCCCC(=O)OCCc1ccccc1CCCC [SW-II-140-2] | 7.4 ± 4.0 | 3.3 ± 1.5 | –
